What is called solubility is how much of the substance goes into solution per volume.

Data set [1] is described as follows: Chemical stability of compositions on storage (total impurities). Format: physicochemical. The text has this: [No. 1 in FIG. 3b is isopropyl ((R)—((((R)-1-(6-amino-9H-purin-9-yl)propan-2-yl)oxy)methyl) (phenoxy)phosphoryl)-L-alaninate]
Data set [2] is described as follows: physchem. The note with it: water.
For data set [3] the following is noted: cited from earlier work.
A short description of data set [4]: Syringeability/injectability with various wetting agents. Format: physicochemical. Conditions: 40% TAF/60% PLGA 5050, 125 mg/mL suspension, wetting agent in minimal amounts. The procedure:
Suspending vehicles with various wetting agents were prepared. […] A formulation 40% TAF (free base, crystalline, and micronized) and 60% PLGA 5050 was used to obtain a 125 mg/mL suspension. These suspensions were evaluated for syringeability/injectability. […] Additionally, Tween 80 could accommodate sterilization via filtration.

Converted amounts (≈) assume the structure as drawn.

Consider `CC(C)OC(=O)[C@H](C)N[P@](=O)(CO[C@H](C)Cn1cnc2c(N)ncnc21)Oc1ccccc1` [Free base, (S)-isopropyl-2-(((S)—((((R)-1-(6-amino-9H-purin-9-yl)propan-2-yl)oxy)methyl)(phenoxy)phosphoryl)amino)propanoate], for which the total impurities in data set [1] (40° C./75% RH closed for 2 weeks) came to 2.1%. Further, the “total impurities observed initially” value in data set [1] (initial) worked out at 2.1%. The solubility in data set [2] is ~3500 µg/mL (≈ 7.35 mM).

Poly(D,L-lactide) [PDLLA]: the “degradation time in vivo” value in data set [3] is on record as 12-18 months.

In the case of polysorbate 80 [Tween 80], the “syringeability/injectability through a 20 G needle” value in data set [4] is given as “improved syringeability/injectability”.

Values taken from patent US20220296619A1, “PHARMACEUTICAL FORMULATIONS OF TENOFOVIR ALAFENAMIDE” (priority 2019, published 2022).
